# From ChEMBL document CHEMBL5604062, “ASAP - ZIKV NS2B-NS3 protease fluorescence dose response” (2024)
# Where “and” joins values, the source holds several entries; their conditions need not be identical. Equal values may be shown once.
# Target: Nonstructural protein 3 (Zika virus, UniProt A0A024AXB9)
# Assay: Functional biochemical assay to identify treatments for viral infectious disease that targets Zika NS2B-NS3 protease. Utilizing a direct enzyme activity measurement method, reading the fluorescence intensity is used to characterize the relative potency of inhibitors as IC50.
# Design: species or system PRVABC59
# Chain of Nonstructural protein 3 (A0A024AXB9 whole entry): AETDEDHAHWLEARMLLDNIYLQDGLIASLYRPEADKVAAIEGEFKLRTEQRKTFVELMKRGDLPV
row,Structure (SMILES),IC50
1,O=C(Nc1ccc2c(c1)CNC2)N1C[C@H](C2CC2)C[C@@H]1C1CC1,> 25 µM
2,O=C(NCc1ccc2c(c1)CCNC2)c1cc(Cl)cc2[nH]ncc12,23.2 µM
3,C[C@H]1C[C@H](c2cccc(CN)c2)[C@@H](c2cc(Cl)cc(NC(=O)OCc3ccccc3)c2)C1,15 µM
4,Cn1ncc(C(=O)Nc2cc(CCCN)ccn2)c1O,> 25 µM
5,Cc1c(C(=O)Nc2cc3c(cn2)OCC3)cc(C2CC2)n1C,> 25 µM
6,CC(C)(C)O[C@H]1CCCN(C(=O)Nc2ccc3c(c2)CNC3)C1,> 25 µM
7,N#C[C@H](Nc1ccc2c(c1)CNC2)c1ccnc(C(F)(F)F)c1,> 25 µM
8,C#Cc1ccnc(NC(=O)c2cc(C3CC3)n(C)c2C)c1,> 25 µM
9,CCN(CC)C[C@H]1CCCN(C(=O)Nc2ccc3c(c2)CNC3)C1,> 25 µM
10,C[C@H]1CC2(CN1C(=O)Nc1ccc3c(c1)CNC3)CC(F)(F)C2,> 25 µM
11,O=C(Nc1ccc2c(c1)CNC2)N1CC[C@H](CC(F)(F)F)C1,> 25 µM
12,CC(C)NC(=O)[C@H](Nc1ccc2c(c1)C(=O)OC2)c1cc(Cl)cc2[nH]ncc12,> 25 µM
13,Clc1cc([C@H](C#Cc2ccccc2)Nc2ccc3c(c2)CNC3)c2cn[nH]c2c1,1.03 µM
14,O=C(NCCCn1ccnc1)[C@H](Nc1ccc2c(c1)CNC2)c1cc(Cl)cc(C2CC2)c1,0.124 µM
15,Clc1cc([C@@H]2C[C@H]2c2cccc(C3CCNCC3)c2)c2cn[nH]c2c1,4.53 µM and 7.81 µM
16,Cc1nc(C2CC2)[nH]c1C(=O)Nc1cc(CCCN)ccn1,> 25 µM
17,CC(C)c1nccn1C[C@H]1CCCN1C(=O)Nc1ccc2c(c1)CNC2,> 25 µM
18,Cc1c(C(=O)Nc2cc(-c3cccnc3)ccn2)cc(C2CC2)n1C,5.84 µM and > 25 µM
19,N#C[C@H](Nc1ccc2c(c1)CNC2)c1cncc2ccccc12,3.87 µM
20,CC1CCN(CC[C@H]2CCCN2C(=O)Nc2ccc3c(c2)CNC3)CC1,> 25 µM
21,CC(C)(C)OC(=O)N1Cc2cc(NC(=O)c3cc(Cl)cc4[nH]ncc34)cc(Br)c2C1,16.4 µM
22,COC(=O)C(C)(C)NC(=O)[C@H](Nc1ccc2c(c1)CNC2)c1cc(Cl)cc(C2CC2)c1,8.99 µM
23,CN(C)C(=O)N1Cc2ccc(NC(=O)c3cc(Cl)cc4[nH]ncc34)cc2C1,> 25 µM

row,Structure (SMILES),IC50
1,CC1=CC[C@H](c2cccc(-c3nn[nH]n3)c2)Nc2cc(Cl)ccc21,> 25 µM
2,Cc1cc(C)n([C@H]2CCCN(C(=O)Nc3ccc4c(c3)CNC4)C2)n1,> 25 µM
3,CCOC(=O)c1ncoc1CNC(=O)[C@H](Nc1ccc2c(c1)CNC2)c1cc(Cl)cc(C2CC2)c1,0.297 µM
4,O=C(NC1CCOCC1)[C@H](Nc1ccc2c(c1)CNC2)c1cc(Cl)cc2[nH]ncc12,0.03 µM and 0.021 µM
5,O=C(Nc1ccc2c(c1)CNC2)N1CCC[C@H]1c1cc(C(F)(F)F)no1,> 25 µM
6,NCc1cc(C=C2CC(C(=O)O)C2)cc(NC(=O)c2cc(Cl)cc(NC(=O)OCc3ccccc3)c2)c1 (stereo unspecified),9.31 µM
7,CC[C@H]1CN(C(=O)Nc2ccc3c(c2)CNC3)C[C@@H]1c1ccc(OC)cc1,> 25 µM
8,CC(C)Nc1c(-c2cc(Cl)cc3[nH]ncc23)nc2ccc3c(n12)CNC3,> 25 µM
9,NCCCc1ccnc(NC(=O)c2cc(C3CC3)[nH]n2)c1,> 25 µM
10,NCc1cc(CC(=O)O)cc([C@H]2C[C@@H]2c2cc(Cl)cc(NC(=O)OCc3ccccc3)c2)c1,> 25 µM
11,CC(C)(C)NC(=O)[C@H](Nc1ccc2c(c1)CNC2)c1cc(Cl)cc(C2CC2)c1,4.69 µM
12,O=C(Nc1ccc2[nH]ncc2c1)c1cc(F)cc2[nH]ncc12,> 25 µM
13,CCOCCNC(=O)[C@H](Nc1ccc2c(c1)CNC2)c1cc(Cl)cc2[nH]ncc12,0.06 µM and 0.042 µM
14,O=C(Nc1ccc2c(c1)CNC2)N1CCC[C@H](Cc2nccs2)C1,> 25 µM
15,O=C1CC[C@H]2[C@H](CCN2C(=O)c2ccc3c(c2)CNC3)N1,> 25 µM
16,O=C(Nc1nc(O)c2c(n1)CNC2)c1cc(Cl)cc2[nH]ncc12,8.43 µM
17,O=C(NCc1cccnc1)[C@H](Nc1ccc2c(c1)CNC2)c1cc(Cl)cc2[nH]ncc12,0.122 µM
18,Clc1cccc([C@H](C#Cc2ccccc2)Nc2ccc3c(c2)CNC3)c1,5.26 µM
19,CNC(=O)[C@H](Nc1ccc2c(c1)C(=O)OC2)c1cc(Cl)cc2[nH]ncc12,> 25 µM
20,C[C@](C#N)(Nc1ccc2c(c1)CNC2)c1cccc(Cl)c1,> 25 µM
21,C[C@H](C1CC1)n1ncc2c(C(=O)Nc3ccc4c(c3)CNC4)cc(C3CC3)nc21,8.05 µM
22,Cc1csc(CO[C@H]2CCN(C(=O)Nc3ccc4c(c3)CNC4)C2)n1,> 25 µM
23,Clc1cc([C@H](C#CC2CC2)Nc2ccc3c(c2)CNC3)c2cn[nH]c2c1,1.35 µM

# The remaining lines, values ahead:
row,IC50,Structure (SMILES)
1,1.83 µM,O=C(Nc1ccc2c(c1)CNC2)c1cccc(-c2cnco2)c1
2,3.06 µM,COCCOc1ccc(Cl)cc1C(=O)Nc1ccc2c(c1)CNC2
3,> 25 µM,Cc1nc2cc(Cl)ccc2cc1C(=O)Nc1ccc2c(c1)CNC2
4,> 25 µM,O=C(Nc1ccc2c(c1)CNC2)C1(c2ccc(Cl)cc2)CCCC1
5,> 25 µM,O=C1Cc2c(cccc2C(=O)Nc2ccc3c(c2)C(=O)OC3)N1
6,1.13 µM,C[C@H]1Oc2c(cccc2C(=O)Nc2ccc3c(c2)CNC3)NC1=O
7,0.59 µM,O=C(Nc1ccc2c(c1)CNC2)c1cc(Br)cc2[nH]c(C3CCOCC3)nc12
8,0.866 µM,Cc1ccc2cc(Cl)cc(C(=O)Nc3ccc4c(c3)CNC4)c2n1
9,> 25 µM,O=C(Nc1ccc2c(c1)CNC2)N1CCC[C@](O)(c2ccccc2)C1
10,1.23 µM,O=C1CCN(c2cc(Cl)cc(C(=O)Nc3ccc4c(c3)CNC4)c2)C(=O)N1
11,5.07 µM,Cn1ncc2c(C(=O)Nc3ccc4c(c3)CNC4)cc(C3CC3)nc21
12,0.079 µM and 0.07 µM,O=C(Nc1ccc2c(c1)CNC2)c1cc(Cl)cc2ccncc12
13,0.021 µM and 0.02 µM,O=C1Cc2c(cc(Br)cc2C(=O)Nc2ccc3c(c2)CNC3)N1
14,0.047 µM and 0.042 µM,O=C(Nc1ccc2c(c1)CNC2)c1cc(Cl)cc2cn[nH]c12
15,> 25 µM,Cc1c[nH]c2ncnc(C(=O)Nc3ccc4c(c3)CNC4)c12
16,> 25 µM,O=C(Nc1ccc2c(c1)CNC2)[C@H]1C[C@@H]1c1ccccc1
17,0.977 µM,Nc1noc2cccc(C(=O)Nc3ccc4c(c3)CNC4)c12
18,> 25 µM,O=C(Cc1ccc2ncsc2c1)Nc1ccc2c(c1)CNC2
19,12.8 µM,CS(=O)(=O)Nc1cccc(C(=O)Nc2ccc3c(c2)CNC3)c1
20,3.63 µM,Cc1nc2c(C(=O)Nc3ccc4c(c3)CNC4)cccc2[nH]1
21,0.027 µM and 0.025 µM,O=C(Nc1ccc2c(c1)CNC2)c1cc(Br)cc2[nH]c(=O)[nH]c12
22,16 µM,O=C(Nc1ccc2c(c1)CNC2)c1ccc2sncc2c1

row,IC50,Structure (SMILES)
1,0.876 µM,O=C(Nc1ccc2c(c1)CNC2)c1cc(Cl)ccc1-n1cncn1
2,1.22 µM,O=C1COc2c(cccc2C(=O)Nc2ccc3c(c2)CNC3)N1
3,0.382 µM,O=C(Nc1ccc2c(c1)CNC2)c1cccc2ccncc12
4,2.24 µM,O=C(Nc1ccc2c(c1)CNC2)c1cc(Cl)nc2[nH]ccc12
5,0.117 µM,Cc1nc2c(C(=O)Nc3ccc4c(c3)CNC4)cc(Cl)cc2[nH]1
6,> 25 µM,O=C(Nc1ccc2c(c1)CNC2)c1ccc2nc(O)sc2c1
7,0.706 µM,CCSc1ccc(Cl)cc1C(=O)Nc1ccc2c(c1)CNC2
8,> 25 µM,O=C(Nc1ccc2c(c1)CNC2)c1cc2ncccc2s1
9,11.4 µM,N#Cc1ccc(C(=O)Nc2ccc3c(c2)CNC3)cc1Cl
10,3.94 µM,O=C(Nc1ccc2c(c1)CNC2)c1cccc(O)c1
11,> 25 µM,O=C(Nc1ccc2c(c1)CNC2)c1nc(Cl)nc2[nH]ccc12
12,> 25 µM,Cc1[nH]c2ccccc2c1[C@H]1CCN(C(=O)Nc2ccc3c(c2)CNC3)C1
13,6.14 µM,O=C1COc2cc(C(=O)Nc3ccc4c(c3)CNC4)ccc2N1
14,7.32 µM,O=C(Nc1ccc2c(c1)CNC2)c1cc(C(F)(F)F)nc2[nH]ccc12
15,> 25 µM,O=C(Nc1ccc2c(c1)CNC2)c1ccc(-c2cncs2)cc1
16,> 25 µM,O=C(Nc1ccc2c(c1)CNC2)c1ncc(Cc2ccccc2)s1
17,3.12 µM,CC(C)(C)NC(=O)[C@H](Nc1ccc2c(c1)CNC2)c1cc(Cl)cc2[nH]ncc12
18,0.456 µM,O=C(Nc1ccc2c(c1)CNC2)c1cccc2sccc12
19,0.443 µM,O=C(Nc1ccc2c(c1)CNC2)c1cncc2[nH]ncc12
20,2.95 µM,O=C(Nc1ccc2c(c1)CNC2)c1ccc2[nH]cnc2c1
21,0.274 µM,O=C(Nc1ccc2c(c1)CNC2)c1cc(F)c2[nH]ccc2c1
22,21.1 µM,O=C(Nc1ccc2c(c1)CNC2)c1ccnc2[nH]ccc12

row,IC50,Structure (SMILES)
1,> 25 µM,O=C(Nc1ccc2c(c1)CNC2)c1ccc2cc[nH]c2c1
2,0.068 µM and 0.064 µM,O=C(Nc1ccc2c(c1)CNC2)c1cccc2[nH]c(=O)[nH]c12
3,> 25 µM,O=C(Nc1ccc2c(c1)CNC2)c1ccc(OC(F)(F)F)cc1
4,> 25 µM,O=C(Nc1ccc2c(c1)CNC2)c1ncnc2[nH]ccc12
5,> 25 µM,NCc1cc(Cl)cc(C(=O)Nc2ccc3c(c2)C(=O)OC3)c1
6,0.312 µM,O=C(Nc1ccc2c(c1)CNC2)c1cc(Cl)cc2[nH]c(-c3ncnn3C3CC3)nc12
7,> 25 µM,O=C(Nc1ccc2c(c1)CNC2)c1c(Cl)ccc2c1OCO2
8,4.03 µM,O=C(Nc1ccc2c(c1)CNC2)c1cccc2nc(C(F)(F)F)[nH]c12
9,0.075 µM and 0.054 µM,CC(C)CNC(=O)[C@H](Nc1ccc2c(c1)CNC2)c1cc(Cl)cc2[nH]ncc12
10,> 25 µM,CC(=O)Nc1cccc(C(=O)Nc2ccc3c(c2)CNC3)n1
11,0.364 µM,CCc1cnccc1-c1nc2c(C(=O)Nc3ccc4c(c3)CNC4)cc(Cl)cc2[nH]1
12,3.4 µM,O=C(Nc1ccc2c(c1)CNC2)c1cccc2ncccc12
13,0.036 µM and 0.031 µM,CCCNC(=O)[C@H](Nc1ccc2c(c1)CNC2)c1cc(Cl)cc2[nH]ncc12
14,7.49 µM,CC1(C)C(=O)Nc2ccc(C(=O)Nc3ccc4c(c3)CNC4)cc21
15,> 25 µM,O=C(Nc1ccc2c(c1)CNC2)c1ccc2ncccc2c1
16,0.997 µM,O=C(Nc1ccc2c(c1)CNC2)c1ccc2ncsc2c1
17,0.569 µM,O=C1Cc2c(cccc2C(=O)Nc2ccc3c(c2)CNCCC3)N1
18,0.765 µM,O=C(Nc1ccc2c(c1)CNC2)c1cc(Cl)cc2[nH]c(C3(n4ccnn4)CC3)nc12
19,2.81 µM,O=C(Nc1ccc2c(c1)CNC2)c1cccc2[nH]cnc12
20,1.67 µM and 2.5 µM,O=C(Nc1ccc2c(c1)CNC2)c1ccc2[nH]ccc2c1
21,1.13 µM,Cn1cc2c(C(=O)Nc3ccc4c(c3)CNC4)cccc2n1
